From patent US12509450B2, “Solid forms of a dual RAF/MEK inhibitor” (Verastem, Inc., priority 2022, dated 2025)

What was measured:
[1] = Dynamic vapor sorption (DVS) moisture sorption isotherm; type: physicochemical; details: for solid form after DVS (XRPD): XRPD of post-DVS sample
Experimental: Samples were analyzed using a TA Instruments Q5000SA gravimetric water sorption analyzer. The weight of the sample was continuously monitored and recorded with respect to the relative humidity (RH) and time. Samples of 5-10 mg were placed in a tared, hermetically sealed aluminum DVS pan under ambient conditions. The sample pan was punctured prior to being loaded into the humidity chamber. A moisture sorption isotherm was performed at 25° C. at 10% RH intervals over a 0-90% RH range. Three cycles were carried out. If the mass gain or loss on a sorption step was less than 0.1% over 15 minutes, the next humidity interval would begin. If weight continued to change after 120 minutes at a given step, the step would time out and proceed to the next humidity interval.

[2] = Stability of Form 1 under stressed conditions (XRPD, UPLC purity, KF water content); type: physicochemical; details: for Purity (Week 1): week 1, UPLC; for Purity (Week 4): week 4, UPLC; for Water content (Week 5): week 5, KF
Experimental: X-ray powder diffraction patterns were obtained using a Bruker D8 equipped with a Cu Kα radiation (40 kV, 40 mA) source (λ=1.54°A), a 9-position sample holder, and a θ-2θ goniometer fitted with a Ge monochromator. The incident beam passes through a 2.0 mm divergence slit followed by a 0.2 mm antiscatter slit. The diffracted beam passes through an 8.0 mm receiving slit with 2.5° Soller slits followed by a LYNXEYE super speed detector. Samples were prepared on polished, zero-background silicon plates and run using a low background, airtight specimen dome.
A Mettler Toledo DL39 Coulometric KF Titrator was used to determine the apparent water content in samples. About 90-100 mg of the solid was used for titration. To limit the exposure of the solution to the air, the titrator opening was closed by a stopper immediately after adding samples. HYDRANAL-Coulomat AD was used as the titrant added at 40% speed. The mixing time used was 30 seconds prior to analysis.
The purity of the sample was determined using the method provided by the Analytical Development at JM. Data were collected using an Agilent […] Series UPLC system and analyzed using Chemstation software.
Form 1 solids were stored in 40° C./75% RH or 30° C./65% RH conditions. The XRPD and UPLC purity were measured at week 1 and week 4 time points. […] Additionally, water content was measured by KF at Week 5.

CNS(=O)(=O)Nc1nccc(Cc2c(C)c3ccc(Oc4ncccn4)cc3oc2=O)c1F [Form 8]
hygroscopicity ([1]; DVS, 25° C.): slightly hygroscopic
weight change between 0-80% RH ([1]; DVS, 25° C., 0-80% RH): up to 0.44%
weight gain observed between 80-90% RH ([1]; DVS, 25° C.): > 0.27%
weight gain at above 80% RH ([1]; DVS, 25° C., above 80% RH): at least 1.12%
solid form after DVS (XRPD) [1]: converted to Form 1

CNS(=O)(=O)Nc1nccc(Cc2c(C)c3ccc(Oc4ncccn4)cc3oc2=O)c1F [Form 1]
XRPD (Week 1) ([2]; 30° C./65% RH): Form 1
Purity (Week 1) ([2]; 30° C./65% RH): 99.2%
XRPD (Week 4) ([2]; 30° C./65% RH): Form 1
Purity (Week 4) ([2]; 30° C./65% RH): 99.2%
Water content (Week 5) ([2]; 30° C./65% RH): 0.6%
purity determined by UPLC on storage ([2]; 40° C./75% RH or 30° C./65% RH, week 1 and week 4): remained statistically unchanged
water content by KF on storage versus initial ([2]; 40° C./75% RH or 30° C./65% RH, week 5): consistent with initial water content
XRPD (Week 1) ([2]; 40° C./75% RH): Form 1
Purity (Week 1) ([2]; 40° C./75% RH): 99.2%
XRPD (Week 4) ([2]; 40° C./75% RH): Form 1
Purity (Week 4) ([2]; 40° C./75% RH): 99.2%
Water content (Week 5) ([2]; 40° C./75% RH): 0.5%
hygroscopicity ([1]; DVS, 25° C.): slightly hygroscopic
weight change between 0-90% RH ([1]; DVS, 25° C.): about 1.8%
weight gain observed between 80-90% RH ([1]; DVS, 25° C.): > 1%
solid form after DVS (XRPD) [1]: no form change

CNS(=O)(=O)Nc1nccc(Cc2c(C)c3ccc(Oc4ncccn4)cc3oc2=O)c1F.[K+] [Form 10]
hygroscopicity ([1]; DVS, 25° C.): hygroscopic
weight change between 0-90% RH ([1]; DVS, 25° C.): about 5.5%
solid form after DVS (XRPD) [1]: converted to Form 1
